Common to all, as to assay type: in vivo, mouse
For series [1], the system named is Tg4-42 mice. Kind of series: Quantification of CA1 neuron numbers by unbiased stereology in Tg4-42 mice. Particulars: aged Tg4-42 mice. The protocol: (§1) Tg4-42 mice were immunized at 6 weeks of age for 12 weeks with antigen [Thioacetal bridged Abeta peptide 1-14—KLH conjugate; DAC*[…]*HH[Cys]-amide (*S—CH—S bridged)] emulsified in complete Freund's adjuvant (CFA), followed by booster doses of protein emulsified in incomplete Freund's adjuvant (IFA). Booster injections of antigen emulsified in IFA was administered at day 14, day 28, day 42, thereafter monthly (3 times after month 4, 5 and 6), after immunization with antigen/CFA emulsion. Mice were acclimated at our facility for at least 7 days before immunization. […]
Stereological analysis was performed as previously described (G. Antonios et al., Alzheimer therapy with an antibody against N-terminal Abeta 4-X and pyroglutamate Abeta 3-X. Scientific reports 5, 17338 (2015)). The hippocampal cell layer CA1 (Bregma −1.22 to −3.52 mm) was delineated on cresyl violet-stained sections and analysed with a stereology workstation (Olympus BX51 with a motorized specimen stage for automatic sampling), StereoInvestigator 7 (MicroBrightField, Williston, USA) and a 100x oil lens (NA=1.35).
(§2) The treatment effect of active immunization was assessed in 6.5 month old Tg4-42 mice on hippocampus-dependent learning and memory by the Morris water maze test (FIG. 31A) and by counting the total number of CA1 neurons in the hippocampus (FIG. 31B). […]

The next series relates to 5XFAD mice. Kind of series: Active immunisation, 18F-Florbetaben-PET/MRI amyloid-plaque imaging in 5XFAD mice. The note with it: immunized 5XFAD mice, cortex, hippocampus and amygdala. Here is the method:
5XFAD mice were immunized at 6 weeks of age for 12 weeks with antigen [Thioacetal bridged amyloid-beta peptide 1-14—KLH conjugate; DAC*[…]*HH[Cys]-amide (*S—CH—S bridged, cyclised via positions 3 and 12)] emulsified in complete Freund's adjuvant (CFA), followed by booster doses of protein emulsified in incomplete Freund's adjuvant (IFA). Mice were acclimated at our facility for at least 7 days before immunization. Mice were injected with antigen emulsified in CFA subcutaneously at two sites on the back, injecting 0.05 to 0.1 mL at each site (total of 0.1 to 0.2 mL per mouse).
Booster injections of antigen emulsified in IFA was administered at day 14, day 28, day 42 and 10 weeks after immunization with antigen/CFA emulsion. The booster is given as a single subcutaneous injection with 0.1 mL of IFA emulsion, at one site on the back. […]
All images were analyzed using PMOD v3.9 (PMOD Technologies, Switzerland) as described before (Bouter et al). […] PET VOI statistics (kBq/cc) were generated for all brain areas and standardized uptake values (SUVs) were calculated [SUV=tissue activity concentration average (kBq/cc)×body weight (g)/injected dose (kBq)] for semi-quantitative analysis. SUVs of 18F-FDG-PET scans were corrected for measured blood glucose levels [SUVGIc=SUV x blood glucose level (mg/dl)]. […]

Series [2] deals with Tg4-42 mice. In words: Spatial reference memory by Morris water maze in Tg4-42 mice. The note with it: aged Tg4-42 mice, FIG. 31A. Here is the method:
as §1, with “immunization. Mice were injected with antigen emulsified in CFA or IFA subcutaneously at two sites on the back, injecting 0.05 to 0.1 mL at each site (total of 0.1 to 0.2 mL per mouse).” for “immunization.”
Spatial reference memory in mice was evaluated using the Morris water maze (R. Morris, Developments of a water-maze procedure for studying spatial learning in the rat. J. Neurosci. Methods 11, 47-60 (1984)) as described previously (Y. Bouter et al., N-truncated amyloid beta (Abeta) 4-42 forms stable aggregates and induces acute and long-lasting behavioral deficits. Acta Neuropathol 126, 189-205 (2013)).
as §2

Take “DAC*FRHDSGYEC*HH[Cys]-amide (*S—CH—S bridged, cyclised via positions 3 and 12)”: the “loss / number of CA1 neurons (in words)” value in the series on Tg4-42 mice [1] (FIG. 31B) is listed as “significantly reduced loss of neurons”. Further, in the series on Tg4-42 mice [1] (IgG1 treated control 128687+13035), the “mean number (+SEM) of neurons in CA1 layer of hippocampus” value is 185858+39180. Besides, the “amyloid-plaque signal (fluorbetaben retention)” value with 5XFAD mice is listed as “drastically reduced”. For the same substance, the “learning and memory deficits, Morris water maze probe trial” value was “substantial rescue of learning and memory deficits” in the series on Tg4-42 mice [2] (listed as 3-12 linked A61-14 cyclic peptide); “rescued memory deficits” with Tg4-42 mice [2] (listed as cylised Aβ peptide).

The record behind these values is patent publication US20230151069A1, “Cyclic Peptides” (LIFEARC, priority 2020, published 2023).
